According to patent US20250099475A1, “METHODS OF TREATING HYPERTENSION BY PERIODIC SUPPRESSION OF ALDOSTERONE SYNTHASE” (Mineralys Therapeutics, Inc., priority 2022, published 2025):
Entries after “also recorded” stand apart in the source; their conditions may differ.

Columns and labels:
[1] = system: subjects with hypertension; test: Double-blinded, randomized, placebo-controlled trial in subjects with hypertension (Example 2; AOBP week 4, serum K+); assay type: in vivo, human
Protocol: A double-blinded, randomized, placebo-controlled trial on the safety and efficacy of Compound A HBr was conducted on subjects with hypertension.
Hypertensive subjects were randomly assigned to one of the following six experimental groups: • (a) Placebo group: Oral administration of a placebo tablet matched for size, color, and shape of study drug once in the morning each day; • (b) 12.5 mg BID: Oral administration of one tablet containing 12.5 mg of Compound A HBr once in the morning and evening, 12 hours apart each day; • (c) 25 mg BID: Oral administration of one tablet containing 25 mg of Compound A HBr once in the morning and evening, 12 hours apart each day; • (d) 12.5 mg QD: Oral administration of one tablet containing 12.5 mg of Compound A HBr once in the morning each day; • (e) 50 mg QD: Oral administration of two tablets containing 25 mg of Compound A HBr once in the morning each day; and • (f) 100 mg QD: Oral administration of one tablet containing 100 mg of Compound A HBr once in the morning each day.
Subjects in the study met the following inclusion criteria: • (a) Male and nonpregnant, nonlactating female subjects ≥18 years of age; • (b) Written informed consent Health Insurance Portability and Accountability Act authorization, and local patient privacy required documentation for this study have been obtained; • (c) Automated office blood pressure (AOBP) with SBP ≥130 mm Hg; • (d) Background antihypertensive treatment of ≥2 drugs; • (e) PRA ≤1.0 ng/mL; • (f) Serum aldosterone ≥1 ng/dL; and • (g) Morning serum cortisol in normal range. If baseline serum cortisol <18 mcg/dL, then baseline Cortrosyn stimulation test administered at baseline.
Prospective subjects were also excluded based on the following exclusion criteria: • (a) Concomitant use of epithelial sodium channel inhibitors or mineralocorticoid receptor antagonists; • (b) Subjects with hypokalemia; • (c) Subjects with hyperkalemia; • (d) Subjects with serum cortisol <3 mcg/dL; • (e) Subjects with serum sodium <135 mEq/L; • (f) Subjects with estimated glomerular filtration rate <60 mL/min/1.73 m2; • (g) Subjects with type 1 or uncontrolled (hemoglobin A1c ≥9%) type 2 diabetes mellitus; • (h) Subjects with body mass index >40 kg/m2; • (i) Subjects with unstable angina; • (j) Subjects with SBP ≥175 mm Hg or DBP ≥100 mm Hg; • (k) Subjects with a decrease in SBP ≥20 mm Hg or DBP ≥10 mm Hg from sitting to standing position; • (l) Subjects who, in the opinion of the investigator, have suspected nonadherence to antihypertensive treatment; • (m) Subjects who, in the opinion of the investigator, have any major medical illness or symptoms; • (n) Subjects who, in the opinion of the investigator, have any acute or chronic medical or psychiatric condition; • (o) Subjects undergoing treatment with any of the following medications: • (i) Topical corticoids; • (ii) Sympathomimetic decongestants; • (iii) Theophylline; • (iv) Phosphodiesterase type 5 inhibitors; • (v) NSAIDs; • (vi) Intramuscular steroids; • (vii) Estrogen; • (viii) Cytochromes; • (ix) Strong CYP3A and CYP3A4 inducers; • (p) Subjects with known hypersensitivity to Compound A HBr or any of the excipients; and • (q) Subjects who are night-shift workers.

[2] = target: T1, human CYP 11B1 (hCYP11B1) (Homo sapiens, UniProt P15538); test: Assay of hCYP11B1 inhibition (11-deoxycortisol to cortisol); assay type: biochemical; settings: mitochondrial fraction of V79 cells stably expressing hCYP11B1; substrate 11-deoxycortisol; read-out: Inhibition constant (Ki) hCYP11B1
T1 construct: expressed in transfected cells; host or cells: V79 cells (mitochondrial fraction)
T1 sequence (P15538 25-503): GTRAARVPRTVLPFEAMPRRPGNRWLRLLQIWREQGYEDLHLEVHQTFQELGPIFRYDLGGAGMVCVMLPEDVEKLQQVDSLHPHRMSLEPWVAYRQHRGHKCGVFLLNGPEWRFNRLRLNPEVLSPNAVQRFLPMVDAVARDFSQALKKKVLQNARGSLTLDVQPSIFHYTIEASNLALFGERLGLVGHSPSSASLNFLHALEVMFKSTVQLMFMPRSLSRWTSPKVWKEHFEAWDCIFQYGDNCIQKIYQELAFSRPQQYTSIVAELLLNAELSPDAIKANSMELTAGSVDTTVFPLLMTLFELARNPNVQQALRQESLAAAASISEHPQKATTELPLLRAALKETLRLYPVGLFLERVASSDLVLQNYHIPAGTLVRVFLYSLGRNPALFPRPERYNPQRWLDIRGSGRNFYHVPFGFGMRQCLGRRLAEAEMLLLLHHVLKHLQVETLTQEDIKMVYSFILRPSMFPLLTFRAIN
Protocol: The inhibitory effects of Compound A on human CYP 11B1 (hCYP11B1) and human CYP11B2 (hCYP11B2) enzyme activity were evaluated by determining the enzymatic conversion rates of 11-deoxycortisol to cortisol for hCYP11B1 and 11-DOC to aldosterone for hCYP11B2.

[3] = system: plasma cortisol concentrations (PCCs); test: ACTH-treated cynomolgus monkey model; assay type: in vivo
Protocol: An adrenocorticotropic hormone (ACTH)-treated cynomolgus monkey model was performed to evaluate the effect of Compound A on plasma cortisol concentrations (PCCs). A dose of Compound A, as free base, that was 100-fold higher than required to reduce PACs (0.3 mg/kg by mouth) was administered, followed immediately by ACTH (50 μg/kg subcutaneously). PACs were also evaluated in the animals. PACs and PCCs were determined by radioimmunoassay and measured during the 24 hours after Compound A administration.

Compound: CC(=O)N[C@H]1CC[C@H](NC(=O)CN2CCN(c3nncc(-c4ccc(C)cc4)n3)CC2)CC1 [Compound A HBr]
- Reduction in systolic blood pressure from baseline at week 4, dose cohort vs placebo, Mean (SEM) ([1]; 12.5 mg BID): 1.2 (5.2)
- Systolic BP by AOBP, Change (Wk 4 v. BL), Mean ([1]; 12.5 mg BID, N 10): −5.3 mmHg
- Systolic BP by AOBP, Change (Wk 4 v. BL), Median ([1]; 12.5 mg BID, N 10): −4.5 mmHg
- Systolic BP by AOBP, Week 4, Mean ([1]; 12.5 mg BID, N 10): 138 mmHg
- Systolic BP by AOBP, Week 4, Median ([1]; 12.5 mg BID, N 10): 133 mmHg
- Reduction in systolic blood pressure from baseline at week 4, dose cohort vs placebo, Mean (SEM) ([1]; 12.5 mg QD): 3.85 (6.1)
- Systolic BP by AOBP, Change (Wk 4 v. BL), Mean ([1]; 12.5 mg QD, N 10): −7.9 mmHg
- Systolic BP by AOBP, Change (Wk 4 v. BL), Median ([1]; 12.5 mg QD, N 10): −2.25 mmHg
- Systolic BP by AOBP, Week 4, Mean ([1]; 12.5 mg QD, N 10): 138.9 mmHg
- Systolic BP by AOBP, Week 4, Median ([1]; 12.5 mg QD, N 10): 139 mmHg
- Reduction in systolic blood pressure from baseline at week 4, dose cohort vs placebo, Mean (SEM) ([1]; 25 mg BID): 11.5 (5.1)
- Systolic BP by AOBP, Change (Wk 4 v. BL), Mean ([1]; 25 mg BID, N 11): −15.5 mmHg
- Systolic BP by AOBP, Change (Wk 4 v. BL), Median ([1]; 25 mg BID, N 11): −20.0 mmHg
- Systolic BP by AOBP, Week 4, Mean ([1]; 25 mg BID, N 11): 132.1 mmHg
- Systolic BP by AOBP, Week 4, Median ([1]; 25 mg BID, N 11): 132 mmHg
- Reduction in systolic blood pressure from baseline at week 4, dose cohort vs placebo, Mean (SEM) ([1]; 50 mg QD): 6.3 (4.9)
- Systolic BP by AOBP, Change (Wk 4 v. BL), Mean ([1]; 50 mg QD, N 12): −10.3 mmHg
- Systolic BP by AOBP, Change (Wk 4 v. BL), Median ([1]; 50 mg QD, N 12): −8.75 mmHg
- Systolic BP by AOBP, Week 4, Mean ([1]; 50 mg QD, N 12): 132.1 mmHg
- Systolic BP by AOBP, Week 4, Median ([1]; 50 mg QD, N 12): 133 mmHg
- Reduction in systolic blood pressure from baseline at week 4, dose cohort vs placebo, Mean (SEM) ([1]; 100 mg QD): 15 (5.4)
- median increase in serum potassium (K+) ([1]; 100 mg QD cohort): 0.2 mmol/L
- subjects with dose held or dose reduction related to elevated K+ ([1]; 100 mg QD cohort): No subjects
- Systolic BP by AOBP, Change (Wk 4 v. BL), Mean ([1]; 100 mg QD, N 10): −19.0 mmHg
- Systolic BP by AOBP, Change (Wk 4 v. BL), Median ([1]; 100 mg QD, N 10): −20.25 mmHg
- Systolic BP by AOBP, Week 4, Mean ([1]; 100 mg QD, N 10): 126.1 mmHg
- Systolic BP by AOBP, Week 4, Median ([1]; 100 mg QD, N 10): 124 mmHg

Compound: CC(=O)N[C@H]1CC[C@H](NC(=O)CN2CCN(c3nncc(-c4ccc(C)cc4)n3)CC2)CC1 [Compound A]
- Ki [2]: 475 nM
- selectivity for CYP11B2 over CYP11B1 in vivo ([3]; monkey models, dose ratio): 100 fold
- effect on PCCs ([3]; single oral dose 100 times greater than the dose that inhibited PAC production, ACTH-loaded monkeys): did not affect PCCs; also recorded: PCCs were not affected
